The test system of test [1] is Rattus norvegicus. Nature of the test: Analgesic activity in rat Bennett model for neuropathic pain […]. It counts as functional.
For test [2], the target named is T1, Transient receptor potential cation channel subfamily V member 1 (Homo sapiens, UniProt Q8NER1). Nature of the test: Antagonist activity at human TRPV1 expressed in CHO cells assessed as inhibition of capsaicin-induced increase in intracellular Ca2+ level by FLIPR assay. It counts as cell-based.
The target of test [3] is T1, Transient receptor potential cation channel subfamily V member 1. Nature of the test: Antagonist activity at human TRPV1 expressed in CHO cells assessed as inhibition of heat-induced increase in intracellular Ca2+ level by FLIPR assay. It counts as cell-based.
For test [4] the target is unchanged. Description: Antagonist activity at human TRPV1 expressed in CHO cells assessed as inhibition of N-arachidonoyl dopamine-induced increase in intracellular Ca2+ level by FLIPR assay. It counts as cell-based.
For test [5], the system named is Mus musculus. Description: Inhibition of capsaicin-induced hypothermia in NMRI mouse compound administered orally 15 mins prior challenge measured 30 mins post challenge. It counts as functional, organism-based.
The test system of test [6] is Mus musculus. Description: Inhibition of capsaicin-induced hypothermia in NMRI mouse compound at 0.1 mg/kg, po administered 15 mins prior challenge measured 30 mins post challenge. The format is functional.
Test [7] deals with Mus musculus. Description: Inhibition of capsaicin-induced hypothermia in NMRI mouse compound at 0.3 mg/kg, po administered 15 mins prior challenge measured 30 mins post challenge. It counts as functional.
Test [8] has as its system Rattus norvegicus. Nature of the test: Analgesic activity in orally dosed rat Bennett model for neuropathic pain. The format is functional, organism-based.
Test [9] has as its system Rattus norvegicus. Description: Analgesic activity in rat Bennett model for neuropathic pain at 1 mg/kg, po. The format is functional.
The test system of test [10] is Rattus norvegicus. Nature of the test: Analgesic activity in rat Bennett model for neuropathic pain at 0.1 mg/kg, po. The format is functional.

T1 sequence (Q8NER1 whole entry): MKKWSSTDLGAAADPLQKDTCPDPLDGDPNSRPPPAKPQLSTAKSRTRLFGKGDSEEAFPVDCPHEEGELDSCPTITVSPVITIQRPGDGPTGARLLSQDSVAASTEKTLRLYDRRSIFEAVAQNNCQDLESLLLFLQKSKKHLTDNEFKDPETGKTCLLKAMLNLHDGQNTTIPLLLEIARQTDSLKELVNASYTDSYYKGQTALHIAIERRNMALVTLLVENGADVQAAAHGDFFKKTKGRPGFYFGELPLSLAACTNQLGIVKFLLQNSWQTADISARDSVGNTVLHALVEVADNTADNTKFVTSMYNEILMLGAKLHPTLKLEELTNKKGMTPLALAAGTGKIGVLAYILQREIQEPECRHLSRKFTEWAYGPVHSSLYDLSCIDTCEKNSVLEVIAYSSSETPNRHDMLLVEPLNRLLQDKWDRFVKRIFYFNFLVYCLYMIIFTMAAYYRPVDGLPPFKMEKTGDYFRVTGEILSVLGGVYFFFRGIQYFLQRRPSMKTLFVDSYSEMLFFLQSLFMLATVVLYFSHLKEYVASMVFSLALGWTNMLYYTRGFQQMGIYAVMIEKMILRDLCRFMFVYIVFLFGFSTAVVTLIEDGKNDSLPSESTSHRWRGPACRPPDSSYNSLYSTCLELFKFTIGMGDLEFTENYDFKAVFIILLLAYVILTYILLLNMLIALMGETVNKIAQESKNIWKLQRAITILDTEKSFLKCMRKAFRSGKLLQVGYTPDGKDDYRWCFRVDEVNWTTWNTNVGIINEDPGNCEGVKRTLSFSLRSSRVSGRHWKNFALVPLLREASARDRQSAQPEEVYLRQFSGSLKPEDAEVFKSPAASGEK

As usually defined, the ED50 is the midpoint of the dose-response relation. A low value points to an effect at a small dose. In the case of `CC(C)C[C@H](CN)CC(=O)O` [PREGABALIN], in the test on Rattus norvegicus [1], the ED50 was 42.2 mg/kg.

What is called Ki is the dissociation constant of the complex between target and ligand, obtained from inhibition or displacement. As for `CC1C=C(c2nc(C(F)(F)F)ccc2CNC(=O)C(C)c2ccc(NS(C)(=O)=O)c(F)c2)CCC1` (stereo not drawn), the Ki in test [2] turned out to be 0.2 nM.

As for `CC(C(=O)NCc1ccc(C(F)(F)F)nc1C1=CCC(C)(C)CC1)c1ccc(NS(C)(=O)=O)c(F)c1` (racemic), the Ki in test [2] amounted to 0.2 nM.

Consider `CC(C(=O)NCc1ccc(C(F)(F)F)nc1[C@H]1CC[C@@H](C(C)(C)C)CC1)c1ccc(NS(C)(=O)=O)c(F)c1` (stereo partly drawn), for which the Ki in test [2] is 1.3 nM.

For `CC(C(=O)NCc1ccc(C(F)(F)F)nc1C1CC2CCC1C2)c1ccc(NS(C)(=O)=O)c(F)c1` (racemic), the Ki in test [2] stood at 1.5 nM.

On to `CC(C(=O)NCc1ccc(C(F)(F)F)nc1C1CCC(C)(C)CC1)c1ccc(NS(C)(=O)=O)c(F)c1` (racemic), for which the Ki in test [2] amounted to 0.4 nM.

Turning to `CC(C(=O)NCc1ccc(C(F)(F)F)nc1C1CCC(F)(F)CC1)c1ccc(NS(C)(=O)=O)c(F)c1` (stereo not drawn), the inhibition constant (Ki) in test [2] was 1.5 nM.

With `CCC1CCC(c2nc(C(F)(F)F)ccc2CNC(=O)C(C)c2ccc(NS(C)(=O)=O)c(F)c2)CC1` (racemic), in test [2], the Ki is 0.3 nM.

For the compound `CC1CCC(c2nc(C(F)(F)F)ccc2CNC(=O)C(C)c2ccc(NS(C)(=O)=O)c(F)c2)CC1` (stereo not drawn), the Ki in test [2] is 0.4 nM.

As for `C[C@H](C(=O)NCc1ccc(C(F)(F)F)nc1C1=CCC(C(C)(C)C)CC1)c1ccc(NS(C)(=O)=O)c(F)c1` (stereo partly drawn), the Ki in [2] was 0.1 nM.

Consider `C[C@H](C(=O)NCc1ccc(C(F)(F)F)nc1C1CCC(C)(C)CC1)c1ccc(NS(C)(=O)=O)c(F)c1`, for which the inhibition constant Ki in test [2] was 0.3 nM.

For the compound `C[C@H](C(=O)NCc1ccc(C(F)(F)F)nc1C1CC2CCC1C2)c1ccc(NS(C)(=O)=O)c(F)c1` (stereo partly drawn), the Ki in [2] stood at 0.8 nM.

In the case of `CCC1CCC(c2nc(C(F)(F)F)ccc2CNC(=O)[C@@H](C)c2ccc(NS(C)(=O)=O)c(F)c2)CC1` (stereo partly drawn), the inhibition constant Ki in [2] came to 0.2 nM.

With `C[C@H](C(=O)NCc1ccc(C(F)(F)F)nc1C1CCCCC1)c1ccc(NS(C)(=O)=O)c(F)c1`, the inhibition constant (Ki) in [2] is 0.3 nM.

As for `CC(C(=O)NCc1ccc(C(F)(F)F)nc1C1=CCC(C(C)(C)C)CC1)c1ccc(NS(C)(=O)=O)c(F)c1` (racemic), in [2], the inhibition constant (Ki) stood at 0.2 nM.

In the case of `CC(C(=O)NCc1ccc(C(F)(F)F)nc1C1CCC(C(C)(C)C)CC1)c1ccc(NS(C)(=O)=O)c(F)c1` (stereo not drawn), in test [2], the Ki was determined as 0.3 nM.

On to `CC1CC=C(c2nc(C(F)(F)F)ccc2CNC(=O)[C@@H](C)c2ccc(NS(C)(=O)=O)c(F)c2)CC1` (stereo partly drawn), for which the inhibitory constant (Ki) in test [2] was 0.2 nM.

Take `CC(C(=O)NCc1ccc(C(F)(F)F)nc1[C@H]1CC[C@H](C(C)(C)C)CC1)c1ccc(NS(C)(=O)=O)c(F)c1` (stereo partly drawn): the Ki in [2] turned out to be 0.3 nM.

A word on the IC50: it is the concentration that gives 50% inhibition. One may read the inhibition in vivo as the percentage by which the read-out fell short of the control. `CC(C(=O)NCc1ccc(C(F)(F)F)nc1C1CCCCC1)c1ccc(NS(C)(=O)=O)c(F)c1` (stereo not drawn): the IC50 in [3] was 14.1 nM. In addition, in [4], the Ki was found to be 0.2 nM. Moreover, the inhibition result in the test with Mus musculus [5] is “Dose-dependent effect”. In the test with Mus musculus [6], this compound displayed an inhibition in vivo at 0.1 mg/kg of 24%. The compound also showed an inhibition in vivo at 0.3 mg/kg in the test with Mus musculus [7] of 78%. Further, the Activity result with Rattus norvegicus [8] was “Dose-dependent effect”. Also, the results for the “%max” value in the test on Rattus norvegicus [9] and with Rattus norvegicus [10] were 53% and 25%, respectively.

Consider `CCCc1nc(C(F)(F)F)ccc1CNC(=O)C(C)c1ccc(NS(C)(=O)=O)c(F)c1` (stereo not drawn), for which, in [2], the inhibition constant (Ki) is 22.7 nM.

Turning to `C[C@H](C(=O)NCc1ccc(C(F)(F)F)nc1C1=CCC(C)(C)CC1)c1ccc(NS(C)(=O)=O)c(F)c1`, the Ki in test [2] is 0.1 nM.

For the origin of these results see ChEMBL document CHEMBL3351466 (Bioorg Med Chem Lett, 2014).
